Assay results: US11382956B2, “Amylin analogues” (Zealand Pharma A/S, priority 2016, dated 2022)
Numbered stars: 1 amine (or outer) side, 2 acyl side, 3 side chain; on linkers, the order of the positions; unused ones are H or OH. Bridge positions count the residues as written; N and C are the ends. Square brackets hold non-standard residues; d marks the D form. Peptide text beside a SMILES is read from it. * marks the point of attachment. C20 diacid = O=C(O)CCCCCCCCCCCCCCCCCCC(=O)*; γGlu = O=C(O)[C@H](CCC(=O)[*:2])N[*:1]; Hyp = O=C(O)[C@@H]1C[C@@H](O)CN1; NMeI = CC[C@H](C)[C@H](NC)C(=O)O; Aad = N[C@@H](CCCC(=O)O)C(=O)O; Orn = NCCC[C@H](N)C(=O)O; Sar = CNCC(=O)O

Columns and labels:
[1] = target: T1, recombinant human amylin 3 receptor (hAMYR3) (Homo sapiens, UniProt O60896+P30988); assay: hAMYR3 cAMP assay (AlphaScreen) in 1321N1 cells; format: cell-based; details: cAMP formation, 45 min stimulation
T1 construct: host or cells: human astrocytoma cell line 1321N1
T1 sequence (P30988 25-474): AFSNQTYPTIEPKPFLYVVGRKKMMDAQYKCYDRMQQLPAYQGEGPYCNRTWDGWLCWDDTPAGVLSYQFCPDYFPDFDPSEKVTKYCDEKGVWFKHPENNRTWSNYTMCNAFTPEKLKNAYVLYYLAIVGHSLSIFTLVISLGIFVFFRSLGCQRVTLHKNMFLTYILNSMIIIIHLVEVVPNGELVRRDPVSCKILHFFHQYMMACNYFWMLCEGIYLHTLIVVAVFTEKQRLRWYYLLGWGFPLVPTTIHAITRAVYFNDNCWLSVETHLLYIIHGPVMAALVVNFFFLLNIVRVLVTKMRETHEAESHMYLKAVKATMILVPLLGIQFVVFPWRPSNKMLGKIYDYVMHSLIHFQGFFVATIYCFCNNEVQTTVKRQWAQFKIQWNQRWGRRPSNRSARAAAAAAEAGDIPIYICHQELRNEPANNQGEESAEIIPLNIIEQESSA
T1 sequence (O60896 24-148 partner): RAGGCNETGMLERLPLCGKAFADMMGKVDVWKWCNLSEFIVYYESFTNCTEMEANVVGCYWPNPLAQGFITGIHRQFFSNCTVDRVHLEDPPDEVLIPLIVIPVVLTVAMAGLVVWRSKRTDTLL
Procedure, shortened: (§1)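 EC50 values come from curve fits over at least 7 peptide concentrations, with cAMP read by AlphaScreen competition after 1 h in the dark. Cells were 1321N1 lines carrying human calcitonin receptor, with RAMP3 co-expressed for AMY3, treated 45 min at room temperature in the presence of IBMX.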

[2] = Assessment of chemical stability in 40 mM buffers at 40° C. (RP-HPLC); format: physicochemical; details: 1 mg/mL; for % degradation after 72 h at 40° C. pH4 acetate: acetate buffer pH 4, 72 h; for % degradation after 72 h at 40° C. pH6 phosphate: phosphate buffer pH 6, 72 h; for % degradation after 72 h at 40° C. pH7 phosphate: phosphate buffer pH 7, 72 h
Procedure, shortened: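 Degradation is the main-peak area-% at each time point minus that at t=0, measured by C8 reversed-phase HPLC (TFA/acetonitrile/water gradient, 220 nm). Incubation at 40° C for 3 or 14 days, 1 mg/mL peptide in 40 mM buffer at pH 4, 6 or 7.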

[3] = Assessment of physical stability: fibril formation by Thioflavin T fluorescence; format: physicochemical; set-up: key: FND = fibrillation not detected; FD = fibrillation detected; details: 1 mg/mL peptide; for Fibrillation (in buffer) pH4 acetate: 50 mM acetate buffer pH 4.0, 96 hours at 40° C.; for Fibrillation (in buffer) pH7 histidine: 50 mM histidine buffer pH 7.0, 96 hours at 40° C.; for Fibrillation (in buffer) pH7 phosphate: 50 mM phosphate buffer pH 7.0, 96 hours at 40° C.
Method: Solutions containing (i) 1 mg/mL of test peptide, 40 μM ThT and 50 mM phosphate (Ph) buffer (pH 7.0), (ii) 1 mg/mL of test peptide, 40 μM ThT and 50 mM histidine (His) buffer (pH 7.0), and (iii) 1 mg/mL of test peptide, 40 μM ThT and 50 mM acetate (Ac) buffer (pH 4.0), were loaded in a 96-well black fluorescence plate (clear bottom) in triplicate. Data were collected at fixed intervals of 10 min, each preceded by 300 s of automixing (agitation), over a period of 96 hours at 40° C. Physical stability is determined by measuring the fluorescence intensity over time. A significant increase in intensity is rated as fibrillation detected (FD).

[4] = target: T2, recombinant human calcitonin receptor (hCT-R) (Homo sapiens, UniProt P30988); assay: hCT-R cAMP assay (AlphaScreen) in 1321N1 cells; format: cell-based; details: cAMP formation, 45 min stimulation
T2 construct: host or cells: human astrocytoma cell line 1321N1
T2 sequence (P30988 25-474): T1 sequence (P30988 25-474)
Procedure, shortened: as §1

| SMILES | EC50 [1] | % degradation after 72 h at 40° C. pH4 acetate [2] | % degradation after 72 h at 40° C. pH6 phosphate [2] | % degradation after 72 h at 40° C. pH7 phosphate [2] | Fibrillation (in buffer) pH4 acetate [3] | Fibrillation (in buffer) pH7 histidine [3] | Fibrillation (in buffer) pH7 phosphate [3] | EC50 [4] | % degradation after 14 days at 40° C. pH4 acetate ([2]; acetate buffer pH 4, 14 days) | % degradation after 14 days at 40° C. pH6 phosphate ([2]; phosphate buffer pH 6, 14 days) | % degradation after 14 days at 40° C. pH7 phosphate ([2]; phosphate buffer pH 7, 14 days) |
| --- | --- | --- | --- | --- | --- | --- | --- | --- | --- | --- | --- |
| CC[C@H](C)[C@@H](C(=O)N1CCC[C@H]1C(=O)N[C@@H](CO)C(=O)N[C@@H](CO)C(=O)N[C@H](C(=O)N[C@@H](CCC(=O)O)C(=O)N[C@H](C(=O)NCC(=O)N[C@@H](CO)C(=O)N[C@@H](CC(N)=O)C(=O)N[C@H](C(=O)N1C[C@H](O)C[C@H]1C(N)=O)[C@@H](C)O)C(C)C)[C@@H](C)O)N(C)C(=O)[C@H](C)NC(=O)CN(C)C(=O)[C@H](Cc1ccccc1)NC(=O)[C@H](CO)NC(=O)[C@H](CO)NC(=O)[C@H](CCCNC(=N)N)NC(=O)[C@H](CCC(N)=O)NC(=O)[C@H](CC(C)C)NC(=O)[C@H](Cc1ccccc1)NC(=O)[C@H](CCCC(=O)O)NC(=O)[C@H](C)NC(=O)[C@H](CC(C)C)NC(=O)[C@H](CCCNC(=N)N)NC(=O)[C@H](CCC(=O)O)NC(=O)[C@@H](NC(=O)[C@H](C)NC(=O)[C@@H]1CCCNC(=O)C[C@H](NC(=O)[C@H](CCCNC(=N)N)NC(=O)CC[C@H](NC(=O)CCCCCCCCCCCCCCCCCCC(=O)O)C(=O)O)C(=O)NCC(=O)N[C@@H]([C@@H](C)O)C(=O)N[C@@H](C)C(=O)N[C@@H]([C@@H](C)O)C(=O)N1)[C@@H](C)O [Compound 21, [19CD]-isoGlu-RD()GTAT-Orn()-ATERLA-Aad-FLQRSSF-Gly(Me)-A-Ile(Me)-PSSTEVGSNT-Hyp-NH2] ({C20 diacid-γGlu}-RDGTAT[Orn]ATERLA[Aad]FLQRSSF[Sar]A[NMeI]PSSTEVGSNT[Hyp]-NH2; lactam 2-7) | 0.01 nM | <1% | <1% | <1% | FND | FND | FND | 0.037 nM |  |  |  |
| CC[C@H](C)[C@@H](C(=O)N[C@@H](CC(C)C)C(=O)N[C@@H](CO)C(=O)N[C@@H](CO)C(=O)N[C@H](C(=O)N[C@@H](CCC(=O)O)C(=O)N[C@H](C(=O)NCC(=O)N[C@@H](CO)C(=O)N[C@@H](CC(N)=O)C(=O)N[C@H](C(=O)N1C[C@H](O)C[C@H]1C(N)=O)[C@@H](C)O)C(C)C)[C@@H](C)O)N(C)C(=O)[C@H](C)NC(=O)CN(C)C(=O)[C@H](Cc1ccccc1)NC(=O)[C@@H](NC(=O)[C@H](C)NC(=O)[C@H](CCCNC(=N)N)NC(=O)[C@H](CCC(N)=O)NC(=O)[C@H](CC(C)C)NC(=O)[C@H](Cc1ccccc1)NC(=O)[C@H](CCCC(=O)O)NC(=O)[C@H](C)NC(=O)[C@H](CC(C)C)NC(=O)[C@H](CCCNC(=N)N)NC(=O)[C@H](CCC(=O)O)NC(=O)[C@@H](NC(=O)[C@H](C)NC(=O)[C@@H]1CCCNC(=O)C[C@H](NC(=O)[C@H](CCCNC(=N)N)NC(=O)CC[C@H](NC(=O)CCCCCCCCCCCCCCCCCCC(=O)O)C(=O)O)C(=O)NCC(=O)N[C@@H]([C@@H](C)O)C(=O)N[C@@H](C)C(=O)N[C@@H]([C@@H](C)O)C(=O)N1)[C@@H](C)O)[C@@H](C)O [Compound 25, [19CD]-isoGlu-RD()GTAT-Orn()-ATERLA-Aad-FLQRATF-Gly(Me)-A-Ile(Me)-LSSTEVGSNT-Hyp-NH2] ({C20 diacid-γGlu}-RDGTAT[Orn]ATERLA[Aad]FLQRATF[Sar]A[NMeI]LSSTEVGSNT[Hyp]-NH2; lactam 2-7) | 0.336 nM |  |  | <1% | FND | FND | FND | 0.844 nM |  |  |  |
| CC[C@H](C)[C@@H](C(=O)N[C@@H](CC(C)C)C(=O)N[C@@H](CO)C(=O)N[C@@H](CO)C(=O)N[C@H](C(=O)N[C@@H](CCC(=O)O)C(=O)N[C@H](C(=O)NCC(=O)N[C@@H](CO)C(=O)N[C@@H](CC(N)=O)C(=O)N[C@H](C(=O)N1C[C@H](O)C[C@H]1C(N)=O)[C@@H](C)O)C(C)C)[C@@H](C)O)N(C)C(=O)[C@H](C)NC(=O)CN(C)C(=O)[C@H](Cc1ccccc1)NC(=O)[C@@H](NC(=O)CNC(=O)[C@H](CCCNC(=N)N)NC(=O)[C@H](CCC(N)=O)NC(=O)[C@H](CC(C)C)NC(=O)[C@H](Cc1ccccc1)NC(=O)[C@H](CCCC(=O)O)NC(=O)[C@H](C)NC(=O)[C@H](CC(C)C)NC(=O)[C@H](CCCNC(=N)N)NC(=O)[C@H](CCC(=O)O)NC(=O)[C@@H](NC(=O)[C@H](C)NC(=O)[C@@H]1CCCNC(=O)C[C@H](NC(=O)[C@H](CCCNC(=N)N)NC(=O)CC[C@H](NC(=O)CCCCCCCCCCCCCCCCCCC(=O)O)C(=O)O)C(=O)NCC(=O)N[C@@H]([C@@H](C)O)C(=O)N[C@@H](C)C(=O)N[C@@H]([C@@H](C)O)C(=O)N1)[C@@H](C)O)[C@@H](C)O [Compound 27, [19CD]-isoGlu-RD()GTAT-Orn()-ATERLA-Aad-FLQRGTF-Gly(Me)-A-Ile(Me)-LSSTEVGSNT-Hyp-NH2] ({C20 diacid-γGlu}-RDGTAT[Orn]ATERLA[Aad]FLQRGTF[Sar]A[NMeI]LSSTEVGSNT[Hyp]-NH2; lactam 2-7) | 0.325 nM | <1% | <1% | 1.7% | FND | FND | FND | 0.521 nM |  |  |  |
| CC[C@H](C)[C@@H](C(=O)N[C@@H](CC(C)C)C(=O)N[C@@H](CO)C(=O)N[C@@H](CO)C(=O)N[C@H](C(=O)N[C@@H](CCC(=O)O)C(=O)N[C@H](C(=O)NCC(=O)N[C@@H](CO)C(=O)N[C@@H](CC(N)=O)C(=O)N[C@H](C(=O)N1C[C@H](O)C[C@H]1C(N)=O)[C@@H](C)O)C(C)C)[C@@H](C)O)N(C)C(=O)[C@H](C)NC(=O)CN(C)C(=O)[C@H](Cc1ccccc1)NC(=O)CNC(=O)CNC(=O)[C@H](CCCNC(=N)N)NC(=O)[C@H](CCC(N)=O)NC(=O)[C@H](CC(C)C)NC(=O)[C@H](Cc1ccccc1)NC(=O)[C@H](CCCC(=O)O)NC(=O)[C@H](C)NC(=O)[C@H](CC(C)C)NC(=O)[C@H](CCCNC(=N)N)NC(=O)[C@H](CCC(=O)O)NC(=O)[C@@H](NC(=O)[C@H](C)NC(=O)[C@@H]1CCCCNC(=O)C[C@H](NC(=O)[C@H](CCCNC(=N)N)NC(=O)CC[C@H](NC(=O)CCCCCCCCCCCCCCCCCCC(=O)O)C(=O)O)C(=O)NCC(=O)N[C@@H]([C@@H](C)O)C(=O)N[C@@H](C)C(=O)N[C@@H]([C@@H](C)O)C(=O)N1)[C@@H](C)O [Compound 32, [19CD]-isoGlu-RD()GTATK()ATERLA-Aad-FLQRGGF-Gly(Me)-A-Ile(Me)-LSSTEVGSNT-Hyp-NH2] ({C20 diacid-γGlu}-RDGTATKATERLA[Aad]FLQRGGF[Sar]A[NMeI]LSSTEVGSNT[Hyp]-NH2; lactam 2-7) | 0.005 nM | 1.3% | <1% | 2.2% | FD | FND | FND | 0.006 nM | <1% | <1% | <1% |
